# Laboratory results as given in patent US12252555B2 (CHINA NATIONAL RESEARCH INSTITUTE OF FOOD & FERMENTATION …, priority 2018, dated 2025).
# No end group written: not given here.
# Columns and labels:
# Assay type in all cases: biochemical
# [1] = Identification of oxidation resistance by ABTS+ method (Trolox standard); parameters: Total antioxidant capacity: unit not given here; conditions: for Total antioxidant capacity: ABTS+ method, sample 5 mg/mL, Trolox standard curve, 734 nm; for Increased multiple, compared with selenium-chelating pea oligopeptide: ratio of total antioxidant capacity
# Source text: 9.2 Identification of Oxidation Resistance of Peptide Segment
# [2] = Determination of capacity to scavenge DPPH free radicals; conditions: positive control; FIG. 10
# Protocol: 8.1 Determination of Capacity to Scavenge DPPH Free Radicals
# Samples in different concentrations are taken and mixed with DPPH-anhydrous ethanol solution ([…]) in a volume ratio of 1:1, and stored for 30 min under a dark condition, and the absorbance of the mixed solution is measured at 517 nm in ultraviolet-visible spectrum, and recorded as Ai. Correspondingly, sample solutions in different mass concentrations are evenly mixed with anhydrous ethanol solution in a volume ratio of 1:1, and stored for 30 min under a dark condition at room temperature, and the absorbance of the mixed solution is measured at 517 nm in ultraviolet-visible spectrum, and recorded as Aj. Distilled water is evenly mixed with DPPH-anhydrous ethanol solution ([…]) in a volume ratio of 1:1, and stored for 30 min under a dark condition at room temperature, and the absorbance is measured at 517 nm in ultraviolet-visible spectrum, and recorded as Ac. Experiment of each group is repeated three times, and average values are obtained and standard deviations are calculated. The sodium selenite and the pea oligopeptide are used as raw material controls before chelation, and ascorbic acid is used as a positive control, the scavenging rate of the sample on DPPH free radicals is calculated according to the following formula:
# (§1) [formula] 8.2 Determination of Capacity to Scavenge OH Free Radicals
# [3] = Determination of capacity to scavenge OH free radicals; conditions: positive control; FIG. 12
# Protocol: as §1
# Sample solutions in different concentrations are taken and evenly mixed with FeSO4 ([…]) and salicylic acid-anhydrous ethanol solution ([…]) in a volume ratio of 1:2:2, the reaction is started with 1 volume of H2O2 solution ([…]), reacting in a water bath at 37° C. for 1 h, and the absorbance is measured at 510 nm in ultraviolet-visible spectrum, and recorded as A2. Correspondingly, the H2O2 solution ([…]) is replaced with 1 volume of water, and the ratio of remaining reagents remains unchanged, reacting in a water bath at 37° C. for 1 h, and the absorbance is measured at 510 nm in ultraviolet-visible spectrum, and recorded as A20. The sample solution is replaced with distilled water, and the ratio of remaining reagents remains unchanged, reacting in a water bath at 37° C. for 1 h, and the absorbance is measured at 510 nm, and recorded as A02. Experiment of each group is repeated three times, and average values are obtained and standard deviations are calculated. The sodium selenite and the pea oligopeptide are used as raw material controls before chelation, and ascorbic acid is used as a positive control, the scavenging rate of the sample on OH free radicals is calculated according to the following formula:
# (§2) [formula] 8.3 Determination of Reducing Capacity
# [4] = Determination of reducing capacity (K3[Fe(CN)6]/FeCl3, absorbance at 700 nm); conditions: absorbance at 700 nm about 1.6; FIG. 14
# Protocol: as §2
# Sample solutions in different concentrations are taken and evenly mixed with phosphate buffer (0.2 mol/L, pH 6.6) and K3[Fe(CN)6] solution with a mass concentration of 1% in a volume ratio of 1:1:1, stored in a water bath at 50° C. for 10 min, and quickly cooled with cold water. 1 volume of trichloroacetic acid solution with a mass concentration of 10% is added, shaken well quickly and thoroughly under a dark condition, and then 1 volume of reaction mixture is taken out, and added with 1 volume of distilled water and 0.2 volume of FeCl3 solution with a mass concentration of 0.1%, and after shaking well quickly and thoroughly under a dark condition, standing for 10 min, the absorbance is measured at 700 nm, and recorded as A3. The sodium selenite and the pea oligopeptide are used as raw material controls before chelation, and ascorbic acid is used as an overall control, the absorbance A3 is directly used as a parameter of the reducing capacity of the sample. Experiment of each group is repeated three times, and average values are obtained and standard deviations are calculated.
Compound,Total antioxidant capacity [1],"Increased multiple, compared with selenium-chelating pea oligopeptide [1]",IC50 value of scavenging DPPH free radical [2] [µg/mL],IC50 value of scavenging OH free radical [3] [µg/mL],Required concentration for absorbance value about 1.6 (reducing capacity) [4] [µg/mL]
Thr-Ser-Ser-Leu-Pro (TSSLP; listed as Pisum sativum) [standard synthetic peptide segment identified in the selenium-chelating pea oligopeptide],5.55,0.10,–,–,–
PPKIYP [standard synthetic peptide segment identified in the selenium-chelating pea oligopeptide],211.12,3.90,–,–,–
TGRGAP [standard synthetic peptide segment identified in the selenium-chelating pea oligopeptide],3.25,0.06,–,–,–
O=C1O[C@H]([C@@H](O)CO)C(O)=C1O [ascorbic acid],–,–,4.85 ± 0.02,1024.87 ± 5.96,400
HQMPKP [standard synthetic peptide segment identified in the selenium-chelating pea oligopeptide],−9.53,–,–,–,–
